From the supplement of paper PMC10477900
Counter-ions that a name gives are not always drawn.

How the values were obtained:
[1] = tested on: HCT116; settings: 72 h
Procedure: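 HCT116 control and MTA1-KO (CRISPR) HCT116 cells were seeded in 384-well plates (800 cells/well), treated 16 h later with 237 metabolism-related anticancer drugs at five doses (10 uM, 2 uM, 400 nM, 80 nM, 16 nM) for 72 h, two replicates; viability by CCK8. Values are % inhibition of viability relative to untreated cells, plus fitted IC50.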

[2] = tested on: HCT116; test: viability inhibition vs untreated; higher = more cytotoxic; settings: 72 h

Row | SMILES | IC50 ([1]; genotype: MTA1-KO) [µM] | IC50 ([1]; genotype: control) [µM] | viability inhibition ([2]; genotype: MTA1-KO, 16 nM) [%] | viability inhibition ([2]; genotype: MTA1-KO, 80 nM) [%] | viability inhibition ([2]; genotype: MTA1-KO, 400 nM) [%] | viability inhibition ([2]; genotype: MTA1-KO, 2000 nM) [%] | viability inhibition ([2]; genotype: MTA1-KO, 10000 nM) [%] | viability inhibition ([2]; genotype: control, 16 nM) [%] | viability inhibition ([2]; genotype: control, 80 nM) [%] | viability inhibition ([2]; genotype: control, 400 nM) [%] | viability inhibition ([2]; genotype: control, 2000 nM) [%] | viability inhibition ([2]; genotype: control, 10000 nM) [%]
1 | N#CCCCSC(=N)N [Kevetrin hydrochloride] | 2.38 | > 10 | 12.4 | 15 | 12.2 | 33.3 | 57.5 | 16.1 | 19.7 | 23 | -4.7 | 23.9
2 | COC(=O)[C@@H](N)CCCN=C(N)N[N+](=O)[O-] [L-NAME hydrochloride] | > 10 | > 10 | -9.14 | -19.4 | -19.9 | -26 | 24.3 | -17.9 | -12.2 | -11.4 | -20.1 | -19.3
3 | NC(N)=NCCC[C@H](N)C(=O)O [L-arginine monohydrochloride] | > 10 | > 10 | -2.61 | -19.3 | -11.5 | -6.84 | 12.2 | -3.45 | -8.59 | 1.36 | 1.49 | 23.5
4 | COC(=O)c1ccc(O)c(NC(=O)COc2ccc(C34CC5CC(CC(C5)C3)C4)cc2)c1 [LW6] | 9.47 | > 10 | 1.16 | 1.05 | -7.41 | 5.31 | 49.9 | -13.6 | -18.1 | -10.6 | -9.1 | -7.79
5 | CC(=O)O[C@H]1C[C@H](O[C@H]2[C@@H](O)C[C@H](O[C@H]3[C@@H](O)C[C@H](O[C@H]4CC[C@@]5(C)[C@H](CC[C@@H]6[C@@H]5C[C@@H](O)[C@]5(C)[C@@H](C7=CC(=O)OC7)CC[C@]65O)C4)O[C@@H]3C)O[C@@H]2C)O[C@H](C)[C@H]1O[C@@H]1O[C@H](CO)[C@@H](O)[C@H](O)[C@H]1O [Lanatoside C] | 0.286 | 0.145 | 2.02 | 2.18 | 87.7 | 105 | 107 | -11.4 | 12.6 | 88 | 99.5 | 101
6 | OCc1ccc(-c2nn(Cc3ccccc3)c3ccccc23)o1 [Lificiguat] | 2.7 | 2.38 | -2.39 | 4.47 | 8.63 | 37.6 | 92.2 | 0.501 | 5.33 | -0.629 | 22.8 | 100
7 | C[C@@H](C(=O)Nc1ccc(Cl)cc1)[C@H]1CC[C@@H](c2ccnc3ccc(F)cc32)CC1 [Linrodostat] | > 10 | > 10 | 1.54 | 1.21 | 3.39 | 14.8 | 44.2 | 10.9 | 21.6 | 17.7 | 28.7 | 22
8 | O=C(O)c1nn(Cc2ccc(Cl)cc2Cl)c2ccccc12 [Lonidamine] | > 10 | > 10 | -2.77 | -15.4 | -12.8 | -13.1 | 17.1 | 4.32 | -14 | -10.1 | 0.337 | 23.5
9 | CC[C@H](C)C(=O)O[C@H]1C[C@@H](C)C=C2C=C[C@H](C)[C@H](CC[C@@H]3C[C@@H](O)CC(=O)O3)[C@H]21 [Lovastatin] | > 10 | > 10 | -10.2 | -12.6 | -7.31 | -11.7 | -8.01 | 2.13 | -3.28 | 8.89 | 5.64 | 29.4
10 | O=c1cc(-c2ccc(O)c(O)c2)oc2cc(O)cc(O)c12 [Luteolin] | > 10 | > 10 | -5.43 | -9.09 | -11.5 | -2.12 | 7.81 | 2.79 | 2.36 | 3.47 | 12.7 | 12.7
11 | O=[N+]([O-])c1ccc(Nc2nc(N3CCOCC3)nc(N3CCOCC3)n2)cc1 [MHY1485] | > 10 | 4.59 | 7.65 | 14.4 | 13.3 | 8.16 | 45.5 | -9.75 | 7.66 | 14.9 | 23.1 | 74.8
12 | Cc1ccc(Oc2nc3cc(-c4ccc(-c5ccccc5)cc4)c(Cl)cc3[nH]2)cc1C(=O)O [MK3903] | 5.67 | 7.34 | -12.7 | -22.9 | -10.6 | 0.304 | 68 | 11.1 | 8.79 | 24.8 | 19.4 | 59.8
13 | Cc1ccccc1C(=O)N1CCc2cc(-c3nc(NC(=O)Cc4ccc5c(c4)OCO5)sc3C)ccc21 [ML385] | > 10 | > 10 | 4.66 | -3.65 | -2.81 | 0.224 | 49.3 | 3.74 | -1.5 | 2.66 | -0.526 | 29.4
14 | NCc1ccc(S(N)(=O)=O)cc1 [Mafenide hydrochloride] | > 10 | > 10 | -13 | -12.9 | -16.5 | -13.4 | -15.9 | -4.74 | 6.87 | -2.33 | -2.58 | -6.77
